{"source": "patent US20140163456A1", "about": "“METHOD OF PRODUCING SUBSTANCES WITH SUPERSATURATED GAS, TRANSDERMAL DELIVERY DEVICE THEREOF, AND USES THEREOF” (INVISIDERM, LLC, priority 2011, published 2014)", "key": {"individuals [1]": {"test_system": "individuals", "experiment": "Measurement of blood flow: Skin Perfusion Pressure (SensiLase System) on right toe, capillary blood flow change", "format": "in vivo, human", "experimental": "(§1) The treatment was administered by having an individual insert the left thumb into the open-ended delivery outlet of a device disclosed herein creating a seal. The digit will be “bathed” for five minutes with a vapor including supersaturated dissolved molecular carbon dioxide from a canister providing pure, medical-grade carbon dioxide. Nine individuals were examined.\nTissue perfusion in distal arteries was accessed using a SensiLase System (a FDA-cleared device) and measuring Skin Perfusion Pressure (SPP) and Pulse Volume Recording (PVR). SPP is a pressure measurement in mmHg that assess local blood perfusion in capillaries using a laser Doppler to measure reactive hyperemia, which reflects microcirculation for distal arterial blood flow. PVR is a measurement of plethysmography to assess changes in arterial blood volume. A change in capillary blood flow (CBF) is calculated by determining the change in SPP values over time. For this study, the CBF values of all post-treatment measurements were calculated by dividing the post-treatment SPP value by the pre-treatment SPP value. A measurement of SPP was performed on the individual's right toe at six time points 1) 5 minutes before treatment (pre-treatment); 2) 5 minutes post-treatment; 3) 30 minutes post-treatment; 4) 60 minutes post-treatment; 5) 120 minutes post-treatment; and 6) 240 minutes post-treatment."}, "individuals [2]": {"test_system": "individuals", "experiment": "Measurement of brachial diastolic and systolic blood pressure on right upper arm", "format": "in vivo, human", "experimental": "as §1\nTo conduct this study, individuals from the study described in Example 1 had there blood pressure taken. A measurement of both brachial diastolic blood pressure and systolic blood pressure was performed on the individual's right upper arm at six time points 1) 5 minutes before treatment (pre-treatment); 2) 5 minutes post-treatment; 3) 30 minutes post-treatment; 4) 60 minutes post-treatment; 5) 120 minutes post-treatment; and 6) 240 minutes post-treatment."}, "[3]": {"conditions": "nine individuals, 5 to 240 min post-treatment"}, "[4]": {"conditions": "over the course of the entire 240 minute study"}}, "data": [{"smiles": "O=C=O", "note": "[molecular carbon dioxide, carbon dioxide]", "values": [{"measurement": "blood flow", "setting": "individuals [1]; [3]", "value": "increases blood flow in all individuals examined at some point during the time period measured"}, {"measurement": "sustained increases in capillary blood flow", "setting": "individuals [1]; [4]", "value": "six of the nine patients showed sustained increases in capillary blood flow"}, {"measurement": "blood pressure", "setting": "individuals [2]; [3]", "value": "decreased blood pressure in all individuals examined at some point during the time period measured"}, {"measurement": "diastolic and systolic blood pressure", "setting": "individuals [2]; [4]", "value": "Seven of the nine individuals studied showed decreased diastolic and systolic blood pressure"}]}]}
